Reference: patent publication US11649502B2, “Exosomal microRNA in serum as an indicator for the activation of brown and beige fat tissue (BAT)” (RHEINISCHE FRIEDRICH-WILHELMS-UNIVERSITÄT BONN, priority 2015, dated 2023)

Columns and labels:
[1] = system: C57BL/6J wild type mice; assay: qPCR of exosomal miRNAs in mouse serum after BAT activation; assay type: in vivo
Description: Cold exposure was performed by housing 12 week old male mice at 4° C. for 7 days. The β3-adrenergic agonist CL-316,243 (#1499, Tocris, Wiesbaden, GER, 0.2 mg/mL in 0.9 W/V % NaCl) was administered by subcutaneous injection (1 μg per g body weight) for 7 days. Control-treated C57BL/6J mice received vehicle injections (0.9% NaCl) correspondingly. Blood collections were performed after 4 hours of fasting.

[2] = system: UCP-1; assay: UCP-1 expression after NE treatment in primary murine white adipocytes; assay type: cell-based, mouse; conditions: primary murine white adipocytes treated with NE
[3] = system: UCP-1; assay: UCP-1 expression after NE treatment in 3T3-L1 cells; assay type: cell-based; conditions: 3T3-L1 cells after NE treatment
From the text: The supernatant was withdrawn and used for exosome isolation.

[4] = serum of mice with active BAT (CL-316,243 or cold)

Compound: C[C@H](Cc1ccc2c(c1)OC(C(=O)[O-])(C(=O)[O-])O2)NC[C@H](O)c1cccc(Cl)c1.[Na+].[Na+] [CL]
- miR-133a in serum-derived exosomes ([1]; CL-treated mice, 1 μg per g body weight s.c. for 7 days): down-regulated
- miR-34c* in serum exosomes (qPCR) [1, 4]: significantly up-
- miR-92a in serum exosomes (qPCR) [1, 4]: down-regulated

Compound: NC[C@H](O)c1ccc(O)c(O)c1 [NE, norepinephrine]
- UCP-1 expression [2]: significant increase
- UCP-1 expression [3]: did not significantly increase
